Experimental data published in ChEMBL document CHEMBL1201862, “PubChem BioAssay data set” (2004).
Calls of active or inactive are those of the source. No stated cut-off is given here; in the data, actives have a measured IC50 and inactives only a lower limit.

Molecular target: Envelope glycoprotein gp160 (Human immunodeficiency virus 1, UniProt Q6QLK5)
Test: cell-free HIV fusion peptide-binding blockers – biochemical, uHTS, fluorescence dequenching, […] (AID 1986)

Chain of Envelope glycoprotein gp160 (Q6QLK5 whole entry, the tested form may be a part): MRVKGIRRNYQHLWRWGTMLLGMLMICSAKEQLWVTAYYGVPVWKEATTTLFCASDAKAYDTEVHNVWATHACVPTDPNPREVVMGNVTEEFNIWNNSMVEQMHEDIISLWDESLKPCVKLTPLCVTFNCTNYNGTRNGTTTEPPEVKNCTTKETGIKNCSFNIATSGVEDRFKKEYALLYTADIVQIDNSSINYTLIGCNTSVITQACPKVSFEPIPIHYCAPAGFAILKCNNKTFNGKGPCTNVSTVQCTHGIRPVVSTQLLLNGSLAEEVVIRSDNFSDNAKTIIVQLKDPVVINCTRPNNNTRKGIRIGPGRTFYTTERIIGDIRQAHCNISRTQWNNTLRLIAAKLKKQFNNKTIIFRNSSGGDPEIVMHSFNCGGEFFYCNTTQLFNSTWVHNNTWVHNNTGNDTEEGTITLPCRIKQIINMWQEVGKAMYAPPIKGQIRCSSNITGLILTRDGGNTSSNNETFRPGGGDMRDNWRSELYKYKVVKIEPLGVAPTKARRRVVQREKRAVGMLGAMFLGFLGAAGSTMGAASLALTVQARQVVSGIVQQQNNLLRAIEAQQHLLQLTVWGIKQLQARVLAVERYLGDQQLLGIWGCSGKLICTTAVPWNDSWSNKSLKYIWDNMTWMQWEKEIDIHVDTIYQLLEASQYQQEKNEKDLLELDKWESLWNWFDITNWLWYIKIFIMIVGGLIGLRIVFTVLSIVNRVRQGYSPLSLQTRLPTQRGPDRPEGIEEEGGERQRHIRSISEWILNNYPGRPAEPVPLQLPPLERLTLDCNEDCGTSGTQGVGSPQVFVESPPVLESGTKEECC

CC(C)NC(=O)c1sc(=S)n2c1[nH]c(=O)c1ccc(C(=O)NCCc3ccc(Cl)cc3)cc12
IC50: 95.7 µM (active)

COc1ccc(/N=C2\S/C(=C\c3ccc(OCC(=O)O)cc3)C(=O)N2CCc2c[nH]c3ccccc23)cc1
IC50: 12.6 µM (active)

O=C(O)COc1ccc(Br)cc1C(c1c(C(=O)O)[nH]c2ccccc12)c1c(C(=O)O)[nH]c2ccccc12
IC50: 5.76 µM (active)

CC1=NN(c2ccc(C(=O)O)cc2)C(=O)/C1=C\c1ccc(OC(=O)c2cccs2)cc1
IC50: 12.6 µM (active)
